One test has as its system TNF-α. The experiment in a line: In vitro test of cytokine release: LPS-stimulated human whole blood / PBMCs, TNFα by ELISA. Format: cell-based. To be noted: for IC50: LPS (E.coli 026:B6) stimulation 4 hours, table does not say whole blood or PBMCs; for TNF-α, value given in %: concentration not given. The method, then:
(§1) They may be administered in one individual dose or in a plurality of doses. The activity spectrum of the compounds as inhibitors of cytokine release was examined using the test systems below, as described by C. Donat and S. Laufer in Arch. Pharm. Pharm. […] 1, 1-40, 2000.
(§2) The reaction is stopped by placing the samples on ice, adding DPBS buffer and then centrifuging at 1000*g for 15 min. The amount of IL-1β and TNFα in the plasma supernatant is then determined by ELISA.
(§3) The cells are washed twice with DPBS buffer, resuspended in macrophage SFM medium and adjusted to a cell count of 1*10^6 cells/ml.
(§4) The reaction is stopped by placing the samples on ice, adding DPBS buffer and then centrifuging at 15 880*g for 12 min. The amount of IL-1β and TNFα in the plasma supernatant is then determined by ELISA.
(In general: An ELISA detects its analyte on a solid surface through an enzyme-linked reagent.)

The subject of the next test is IL-1β. Nature of the test: In vitro test of cytokine release: LPS-stimulated human whole blood / PBMCs, IL-1β by ELISA. As to conditions: for IC50: LPS (E.coli 026:B6) stimulation 4 hours, table does not say whole blood or PBMCs. It is filed as cell-based. Here is the method: as §1, §2, §3, §4

What is called IC50 is the concentration that gives 50% inhibition. Read a low IC50 as greater potency. With `CCCn1c(SCc2ccc(C)cc2)nc(-c2ccc(F)cc2)c1-c1ccncc1` [Example 30, 4-(4-Fluorophenyl)-2-(4-methylbenzyl)thio-1-n-propyl-5-(4-pyridyl)-imidazole], the IC50 in the test with TNF-α (Homo sapiens, Table 1) worked out at 22 µM; in the test on IL-1β (Homo sapiens, Table 1), 1300 nM.

In the case of `Fc1ccc(-c2[nH]c(=S)n(CCN3CCOCC3)c2-c2ccncc2)cc1` [Example 16, 4-(4-Fluorophenyl)-1-N-morpholinoethyl-5-(4-pyridyl)-2-thioimidazole], the “TNF-α, value given in %” value in the test with TNF-α (Table 1) is 34%. The “IL-1β, value given in %” value in the test on IL-1β (Table 1, concentration not given) came out at 44%.

Regarding `CCCn1c(SCc2ccc(S(C)(=O)=O)cc2)nc(-c2ccc(F)cc2)c1-c1ccncc1` [Example 33, 4-(4-Fluorophenyl)-2-(4-methylsulfonyl)benzylthio-1-n-propyl-5-(4-pyridyl)imidazole], the IC50 was 6.8 µM in the test on TNF-α (Table 1) and 720 nM with IL-1β (Table 1).

On to `CN(C)CCn1c(-c2ccncc2)c(-c2ccc(F)cc2)[nH]c1=S` [Example 11, 1-Dimethylaminoethyl-4-(4-fluorophenyl)-5-(4-pyridyl)-2-thioimidazole], for which the “TNF-α, value given in %” value with TNF-α (Table 1) is reported as 19%. In the test with IL-1β (Table 1), this molecule returned an IC50 of 12000 nM.

With `CCCn1c(-c2ccncc2)c(-c2ccc(F)cc2)[nH]c1=S` [Example 3, 4-(4-Fluorophenyl)-1-n-propyl-5-(4-pyridyl)-2-thioimidazole], the IC50 came to 32 µM in the test with TNF-α (Table 1) and 2400 nM with IL-1β (Table 1).

Consider `Cc1nc(S)n(-c2ccc(F)cc2)c1-c1ccncc1` [Example 57, 1-(4-Fluorophenyl)-4-methyl-5-(4-pyridyl)imidazole-2-thiol], for which the “TNF-α, value given in %” value in the test on TNF-α (Table 1) came to 34%. For the same molecule, in the test on IL-1β (Homo sapiens, Table 1), inhibition was half-maximal at 19000 nM (IC50).

With “1-Dimethylaminophenyl-4-(4-fluorophenyl)-5-(4-pyridyl)-2-thioimidazole [Example 9]”, the IC50 in the test on TNF-α (Table 1) came out at 15 µM; with IL-1β (Table 1), 1800 nM.

Regarding `CCCn1c(SCc2ccc(SC)cc2)nc(-c2ccc(F)cc2)c1-c1ccncc1` [Example 31, 4-(4-Fluorophenyl)-2-(4-methylthio)benzylthio-1-n-propyl-5-(4-pyridyl)-imidazole], the “TNF-α, value given in %” value with TNF-α (Table 1) was found to be 35%. In addition, the half-inhibitory concentration (IC50) with IL-1β (Table 1) is 4700 nM.

As to `Fc1ccc(-c2[nH]c(=S)n(-c3cccnc3)c2-c2ccncc2)cc1` [Example 10, 4-(4-Fluorophenyl)-1-(3-pyridyl)-5-(4-pyridyl)-2-thioimidazole], the “TNF-α, value given in %” value in the test on TNF-α (Table 1) amounted to 42%. In addition, the IC50 with IL-1β (Table 1) was found to be 8000 nM.

Consider `CSc1nc(-c2ccc(F)cc2)c(-c2ccncc2)n1CCCN1CCOCC1` [Example 24, 4-(4-Fluorophenyl)-2-methylthio-1-N-morpholinopropyl-5-(4-pyridyl)-imidazole], for which the IC50 with TNF-α (Homo sapiens, Table 1) was found to be 2.7 µM; in the test on IL-1β (Homo sapiens, Table 1) it was 1000 nM.

As to `CCCn1c(Sc2ccccc2)nc(-c2ccc(F)cc2)c1-c1ccncc1` [Example 52, 4-(4-Fluorophenyl)-2-phenylthio-1-n-propyl-5-(4-pyridyl)imidazole], the IC50 in the test with TNF-α (Homo sapiens, Table 1) turned out to be 14 µM; in the test on IL-1β (Homo sapiens, Table 1) it was 1000 nM.

Turning to `CCNc1cc(-c2c(-c3ccc(F)cc3)nc(SC)n2C)ccn1` [Example 73], the concentration for half-maximal inhibition (IC50) in the test with TNF-α (Homo sapiens, Table 2) is 0.35 µM; with IL-1β (Homo sapiens, Table 2), 50 nM.

On to `CC1(C)CC(n2c(-c3ccncc3)c(-c3ccc(F)cc3)[nH]c2=S)CC(C)(C)N1` [Example 12, 4-(4-Fluorophenyl)-5-(4-pyridyl)-1-(2,2,6,6-tetramethylpiperidin-4-yl)-2-thioimidazole], for which the figures for the IC50 in the test with TNF-α (Table 1) and in the test on IL-1β (Table 1) were 45 µM and 1600 nM, respectively.

`CSc1nc(-c2ccc(F)cc2)c(-c2ccnc(NC(C)=O)c2)n1C` [Example 61, 4-(4-Fluorophenyl)-1-methyl-5-(2-acetamido-4-pyridyl)-2-methyl-thioimidazole]: the half-inhibitory concentration (IC50) in the test with TNF-α (Homo sapiens, Table 2) is 0.87 µM; in the test on IL-1β (Homo sapiens, Table 2), 70 nM.

For `COc1ccc(C(=O)Nc2cc(-c3c(-c4ccc(F)cc4)nc(SC)n3C)ccn2)cc1` [Example 67, 4-([lacuna]-Fluorophenyl)-1-methyl-5-[2-(4-methoxybenzamido)-4-pyridyl]-2-methylthioimidazole], the IC50 in the test with TNF-α (Homo sapiens, Table 2) was 0.64 µM; with IL-1β (Homo sapiens, Table 2) it was 440 nM.

On to `CC(C)n1c(-c2ccncc2)c(-c2ccc(F)cc2)[nH]c1=S` [Example 4], for which, in the test on TNF-α (Table 1), the “TNF-α, value given in %” value is given as 46%. The molecule further had an IC50 with IL-1β (Table 1) of 2200 nM.

Take `Fc1ccc(-c2nc(SCc3ccccc3)n(CCCN3CCOCC3)c2-c2ccncc2)cc1` [Example 43]: the IC50 in the test with TNF-α (Table 1) stood at 5.4 µM; in the test with IL-1β (Table 1) it was 890 nM.

Regarding `Fc1ccc(-c2nc(SCc3ccccc3)n(CCN3CCOCC3)c2-c2ccncc2)cc1` [Example 42, 2-Benzylthio-4-(4-fluorophenyl)-1-N-morpholinoethyl-5-(4-pyridyl)-imidazole], the IC50 in the test with TNF-α (Homo sapiens, Table 1) came out at 11 µM; with IL-1β (Homo sapiens, Table 1) it was 1300 nM.

Take `C[S+]([O-])c1ccc(CSc2nc(-c3ccc(F)cc3)c(-c3ccncc3)n2CCN2CCOCC2)cc1` (centres unmarked) [Example 45, 4-(4-Fluorophenyl)-2-(4-methylsulfinyl)benzylthio-1-N-morpholinoethyl-5-(4-pyridyl)imidazole]: the IC50 in the test with TNF-α (Table 1) was 12 µM; in the test on IL-1β (Table 1) it was 2400 nM.

`CSc1nc(-c2ccc(F)cc2)c(-c2ccnc(NCc3ccccc3)c2)n1C` [Example 70, 4-(4-Fluorophenyl)-1-methyl-5-(2-benzylamino-4-pyridyl)-2-methyl-thioimidazole]: the IC50 with TNF-α (Homo sapiens, Table 2) is 0.39 µM; in the test on IL-1β (Homo sapiens, Table 2), 80 nM.

In the case of `Fc1ccc(-c2[nH]c(=S)n(CCCN3CCOCC3)c2-c2ccncc2)cc1` [Example 14, 4-(4-Fluorophenyl)-1-(3-N-morpholinopropyl)-5-(4-pyridyl)-2-thioimidazole], the figures for the IC50 in the test with TNF-α (Table 1) and in the test with IL-1β (Table 1) were 100 µM and 18000 nM, respectively.

Turning to `CSc1nc(-c2ccc(F)cc2)c(-c2ccncc2)n1C1CC(C)(C)NC(C)(C)C1` [Example 25, 4-(4-Fluorophenyl)-2-methylthio-5-(4-pyridyl)-1-(2,2,6,6-tetramethyl-piperidin-4-yl)imidazole], the IC50 in the test on TNF-α (Homo sapiens, Table 1) was 16 µM; in the test with IL-1β (Homo sapiens, Table 1), 850 nM.

Consider `Cn1c(S)nc(-c2ccc(F)cc2)c1-c1ccncc1` [Example 1, 4-(4-fluorophenyl)-1-methyl-5-(4-pyridyl)-2-thioimidazole], for which the IC50 with TNF-α (Table 1) amounted to 19 µM; in the test with IL-1β (Table 1) it was 3600 nM.

With `CCn1c(SCc2ccc(S(C)(=O)=O)cc2)nc(-c2ccc(F)cc2)c1-c1ccncc1` [Example 27, 1-Ethyl-4-(4-fluorophenyl)-2-(4-methylsulfonyl)benzylthio-5-(4-pyridyl)-imidazole], the IC50 came to 4.1 µM in the test on TNF-α (Table 1) and 950 nM in the test with IL-1β (Table 1).

`CCCn1c(SC)nc(-c2ccc(F)cc2)c1-c1ccncc1` [Example 21, 4-(4-Fluorophenyl)-2-methylthio-1-n-propyl-5-(4-pyridyl)imidazole]: the IC50 in the test on TNF-α (Homo sapiens, Table 1) is 1.3 µM; in the test on IL-1β (Homo sapiens, Table 1), 360 nM.

On to `CCCn1c(SC)nc(-c2ccc(F)cc2)c1-c1ccnc(NC(C)=O)c1` [Example 62, 4-(4-Fluorophenyl)-1-n-propyl-5-(2-acetamido-4-pyridyl)-2-methyl-thioimidazole], for which the IC50 worked out at 0.49 µM with TNF-α (Homo sapiens, Table 2) and 120 nM in the test with IL-1β (Homo sapiens, Table 2).

On to `CCCn1c(SCc2ccc(Cl)cc2)nc(-c2ccc(F)cc2)c1-c1ccncc1` [Example 29, 2-(4-Chlorobenzyl)thio-4-(4-fluorophenyl)-1-n-propyl-5-(4-pyridyl)-imidazole], for which the IC50 in the test with TNF-α (Homo sapiens, Table 1) is 62 µM; with IL-1β (Homo sapiens, Table 1) it was 1300 nM.

For `CS(=O)(=O)c1ccc(CSc2nc(-c3ccc(F)cc3)c(-c3ccncc3)n2Cc2ccccc2)cc1` [Example 41, 1-Benzyl-4-(4-fluorophenyl)-2-(4-methylsulfonyl)benzylthio-5-(4-pyridyl)-imidazole], the IC50 in the test with TNF-α (Table 1) worked out at 1 µM; with IL-1β (Table 1) it was 360 nM.

Turning to `CSc1nc(-c2ccc(F)cc2)c(-c2ccncc2)n1C1CC1` [Example 22, 1-Cyclopropyl-4-(4-fluorophenyl)-2-methylthio-5-(4-pyridyl)imidazole], the IC50 came out at 1.1 µM in the test with TNF-α (Homo sapiens, Table 1) and 340 nM in the test on IL-1β (Homo sapiens, Table 1).

In the case of `CCCn1c(Sc2ccc(Cl)cc2)nc(-c2ccc(F)cc2)c1-c1ccncc1` [Example 53, 2-(4-Chlorophenyl)thio-4-(4-fluorophenyl)-1-n-propyl-5-(4-pyridyl)-imidazole], the IC50 was determined as 29 µM with TNF-α (Homo sapiens, Table 1) and 3300 nM in the test on IL-1β (Homo sapiens, Table 1).

For `CCCn1c(Sc2ccc(SC)cc2)nc(-c2ccc(F)cc2)c1-c1ccncc1` [Example 54, 4-(4-Fluorophenyl)-2-(4-methylsulfanyl)phenylsulfanyl-1-n-propyl-5-(4-pyridyl)imidazole], the 50% inhibitory concentration (IC50) in the test on TNF-α (Table 1) is 68 µM; with IL-1β (Table 1) it was 2500 nM.

For the molecule `CCCn1c(Sc2ccc(S(C)(=O)=O)cc2)nc(-c2ccc(F)cc2)c1-c1ccncc1` [Example 56, 4-(4-Fluorophenyl)-2-[(4-methylsulfonyl)phenyl]thio-1-n-propyl-5-(4-pyridyl)imidazole], the IC50 with TNF-α (Table 1) came to 19 µM; in the test with IL-1β (Table 1), 1500 nM.

As for `Cc1c(-c2ccc(F)cc2)nc(S)n1-c1cccnc1` [Example 58, 4-(4-Fluorophenyl)-5-methyl-1-(3-pyridyl)imidazole-2-thiol], in the test on TNF-α (Table 1), the “TNF-α, value given in %” value amounted to 32%. The IC50 in the test on IL-1β (Homo sapiens, Table 1) was determined as 28000 nM.

Turning to `CS(=O)(=O)c1ccc(CSc2nc(-c3ccc(F)cc3)c(-c3ccncc3)n2-c2ccccc2)cc1` [Example 40, 4-(4-Fluorophenyl)-2-(4-methylsulfonyl)benzylthio-1-phenyl-5-(4-pyridyl)imidazole], the figures for the IC50 with TNF-α (Table 1) and in the test on IL-1β (Table 1) were 3.4 µM and 1300 nM, respectively.

The values above are taken from patent US7253191B2, “2-thio-substituted imidazole derivatives and the use thereof in the pharmaceutical industry” (Merckle GmbH, priority 2001, dated 2007).
